# Results as given in ChEMBL document CHEMBL1133640, “Structure-activity studies including a Psi(CH(2)-NH) scan of peptide YY (PYY) active site, PYY(22-36), for interaction with rat intestinal PYY receptors: development of analogues with potent in vivo activity in the intestine” (J Med Chem, 2000).
# Where a SMILES comes first, the peptide text is derived from it. [ ]: non-standard residue; d: D form. The star is where a group is joined. X1 = C[C@@H](O)[C@@H](CN[C@@H](CCCN=C(N)N)C(=O)N[C@@H](CCC(N)=O)C(=O)N[C@@H](CCCN=C(N)N)C(=O)N[C@@H](Cc1ccc(O)cc1)C(N)=O)N*; X2 = N=C(N)NCCC[C@@H](CN[C@@H](CCC(N)=O)C(=O)N[C@@H](CCCNC(=N)N)C(=O)N[C@@H](Cc1ccc(O)cc1)C(N)=O)N*; Argψ(CH2NH)TyrNH2 = N=C(N)NCCC[C@@H](CN[C@@H](Cc1ccc(O)cc1)C(N)=O)N*; Tic = O=C(O)[C@@H]1Cc2ccccc2CN1
# Experiments:
# [1] = molecular target: T1, Neuropeptide Y receptor type 2 (Homo sapiens, UniProt P49146); assay: Affinity against Neuropeptide Y receptor Y2 in SK-N-BE2 cell line
# T1 sequence (P49146 whole entry): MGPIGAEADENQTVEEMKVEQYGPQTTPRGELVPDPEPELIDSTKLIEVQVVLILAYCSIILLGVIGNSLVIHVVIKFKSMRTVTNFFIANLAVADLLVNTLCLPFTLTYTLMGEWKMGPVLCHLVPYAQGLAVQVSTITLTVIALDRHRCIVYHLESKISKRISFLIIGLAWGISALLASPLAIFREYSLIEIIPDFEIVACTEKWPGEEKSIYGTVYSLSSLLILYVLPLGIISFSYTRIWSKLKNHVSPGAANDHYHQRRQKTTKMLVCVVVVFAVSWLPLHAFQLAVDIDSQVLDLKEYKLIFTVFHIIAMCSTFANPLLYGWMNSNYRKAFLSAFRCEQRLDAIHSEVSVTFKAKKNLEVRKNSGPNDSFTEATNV
# [2] = molecular target: Neuropeptide Y receptor type 1 (Homo sapiens, UniProt P25929); assay: Affinity against Neuropeptide Y receptor Y1 in SK-N-MC cell line; format: cell-based
# Chain of Neuropeptide Y receptor type 1 (P25929 whole entry): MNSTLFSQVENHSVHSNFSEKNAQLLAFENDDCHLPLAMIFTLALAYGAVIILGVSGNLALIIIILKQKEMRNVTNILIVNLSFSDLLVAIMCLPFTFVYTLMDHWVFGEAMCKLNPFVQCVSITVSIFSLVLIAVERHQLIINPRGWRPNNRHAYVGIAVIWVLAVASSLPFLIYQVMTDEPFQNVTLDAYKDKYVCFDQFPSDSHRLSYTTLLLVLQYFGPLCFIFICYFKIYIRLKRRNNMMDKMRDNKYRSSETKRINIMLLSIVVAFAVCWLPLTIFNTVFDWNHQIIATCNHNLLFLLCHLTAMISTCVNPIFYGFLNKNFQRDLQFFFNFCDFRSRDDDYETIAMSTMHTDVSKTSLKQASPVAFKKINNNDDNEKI
# [3] = molecular target: Neuropeptide Y receptor type 2 (Rattus norvegicus, UniProt Q9ERC0); assay: Antisecretory potency, affinity for intestinal PYY of rat jejunum by using short circuit current (SCC) method.; format: tissue-based
# Chain of Neuropeptide Y receptor type 2 (Rattus norvegicus, UniProt Q9ERC0) (Q9ERC0 whole entry): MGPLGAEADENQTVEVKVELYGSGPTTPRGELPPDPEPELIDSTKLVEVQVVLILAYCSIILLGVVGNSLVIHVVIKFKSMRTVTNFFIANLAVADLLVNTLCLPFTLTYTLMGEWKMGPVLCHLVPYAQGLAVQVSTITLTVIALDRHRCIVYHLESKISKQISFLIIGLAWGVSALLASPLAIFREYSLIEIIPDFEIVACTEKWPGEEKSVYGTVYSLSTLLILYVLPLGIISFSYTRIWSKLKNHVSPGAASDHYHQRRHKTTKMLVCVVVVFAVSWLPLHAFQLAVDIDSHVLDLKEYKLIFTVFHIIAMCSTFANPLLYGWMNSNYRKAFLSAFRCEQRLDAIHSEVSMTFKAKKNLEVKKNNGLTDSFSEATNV
molecule,measurement,setting,value
CC(=O)N[C@@H](C)C(=O)N[C@@H](CO)C(=O)N[C@@H](CC(C)C)C(=O)N[C@@H](CCCN=C(N)N)C(=O)N[C@@H](Cc1c[nH]cn1)C(=O)N[C@@H](Cc1ccc(O)cc1)C(=O)N[C@@H](CC(C)C)C(=O)N[C@@H](CC(N)=O)C(=O)N[C@H](Cc1c[nH]c2ccccc12)C(=O)N[C@H](C(=O)N[C@H](C(=O)N[C@@H](CCCN=C(N)N)C(=O)N[C@@H](CCC(N)=O)C(=O)N[C@@H](CCCN=C(N)N)C(=O)N[C@@H](Cc1ccc(O)cc1)C(N)=O)[C@@H](C)O)C(C)C,IC50,[1],56.5 nM
same,IC50,[2],47.9 nM
same,IC50,[3],> 100 nM
CC(=O)N[C@@H](C)C(=O)N[C@@H](CO)C(=O)N[C@@H](CC(C)C)C(=O)N[C@@H](CCCNC(=N)N)C(=O)N[C@@H](Cc1cnc[nH]1)C(=O)N[C@@H](Cc1ccc(O)cc1)C(=O)N[C@@H](CC(C)C)C(=O)N[C@@H](CC(N)=O)C(=O)N[C@@H](Cc1c[nH]c2ccccc12)C(=O)N[C@H](C(=O)N[C@H](C(=O)N[C@@H](CCCNC(=N)N)C(=O)N[C@@H](CCC(N)=O)C(=O)N[C@@H](CCCNC(=N)N)CN[C@@H](Cc1ccc(O)cc1)C(N)=O)[C@@H](C)O)C(C)C,IC50,[1],1.39 nM
same,IC50,[2],1510 nM
same,IC50,[3],0.28 nM
CCCC[C@H](NC(=O)[C@H](CO)NC(=O)[C@H](C)NC(C)=O)C(=O)N[C@@H](CCCN=C(N)N)C(=O)N[C@@H](Cc1c[nH]cn1)C(=O)N[C@@H](Cc1ccc(O)cc1)C(=O)N[C@@H](CCCC)C(=O)N[C@@H](CC(N)=O)C(=O)N[C@@H](CCCC)C(=O)N[C@@H](CCC)C(=O)N[C@H](C(=O)N[C@@H](CCCN=C(N)N)C(=O)N[C@@H](CCC(N)=O)C(=O)N[C@@H](CCCN=C(N)N)C(=O)N[C@@H](Cc1ccc(O)cc1)C(N)=O)[C@@H](C)O,IC50,[1],57 nM
same,IC50,[2],1590 nM
same,IC50,[3],0.59 nM
CC(=O)N[C@@H](C)C(=O)N[C@@H](CO)C(=O)N[C@@H](CC(C)C)C(=O)N[C@@H](CCCNC(=N)N)C(=O)N[C@@H](Cc1cnc[nH]1)C(=O)N[C@@H](Cc1ccc(O)cc1)C(=O)N[C@@H](CC(C)C)C(=O)N[C@@H](CC(N)=O)C(=O)N[C@@H](CC(C)C)C(=O)N[C@H](C(=O)N[C@H](C(=O)N[C@@H](CCCNC(=N)N)C(=O)N[C@@H](CCC(N)=O)C(=O)N[C@@H](CCCNC(=N)N)C(=O)N[C@@H](Cc1ccc(O)cc1)C(N)=O)[C@@H](C)O)C(C)C,IC50,[1],1.3 nM
same,IC50,[2],> 1000 nM
same,IC50,[3],0.91 nM
CCCC[C@H](NC(=O)[C@H](CO)NC(=O)[C@H](C)NC(C)=O)C(=O)N[C@@H](CCCNC(=N)N)C(=O)N[C@@H](Cc1cnc[nH]1)C(=O)N[C@@H](Cc1ccc(O)cc1)C(=O)N[C@@H](CCCC)C(=O)N[C@@H](CC(N)=O)C(=O)N[C@@H](Cc1c[nH]c2ccccc12)C(=O)N[C@@H](CCC)C(=O)N[C@H](C(=O)N[C@@H](CCCNC(=N)N)C(=O)N[C@@H](CCC(N)=O)C(=O)N[C@@H](CCCNC(=N)N)C(=O)N[C@@H](Cc1ccc(O)cc1)C(N)=O)[C@@H](C)O,IC50,[1],3.73 nM
same,IC50,[2],183 nM
same,IC50,[3],0.56 nM
CC(=O)N[C@@H](C)C(=O)N[C@@H](CO)C(=O)N[C@@H](CC(C)C)C(=O)N[C@@H](CCCN=C(N)N)C(=O)N[C@@H](Cc1c[nH]cn1)C(=O)N[C@H](CN[C@@H](CC(C)C)C(=O)N[C@@H](CC(N)=O)C(=O)N[C@@H](CC(C)C)C(=O)N[C@H](C(=O)N[C@H](C(=O)N[C@@H](CCCN=C(N)N)C(=O)N[C@@H](CCC(N)=O)C(=O)N[C@@H](CCCN=C(N)N)C(=O)N[C@@H](Cc1ccc(O)cc1)C(N)=O)[C@@H](C)O)C(C)C)Cc1ccc(O)cc1,IC50,[1],864 nM
same,IC50,[2],1270 nM
same,IC50,[3],> 100 nM
CC(=O)N[C@@H](C)C(=O)N[C@@H](CO)C(=O)N[C@@H](CC(C)C)C(=O)N[C@@H](CCCN=C(N)N)C(=O)N[C@@H](Cc1c[nH]cn1)C(=O)N[C@@H](Cc1ccc(O)cc1)C(=O)N[C@H](CN[C@@H](CC(N)=O)C(=O)N[C@@H](CC(C)C)C(=O)N[C@H](C(=O)N[C@H](C(=O)N[C@@H](CCCN=C(N)N)C(=O)N[C@@H](CCC(N)=O)C(=O)N[C@@H](CCCN=C(N)N)C(=O)N[C@@H](Cc1ccc(O)cc1)C(N)=O)[C@@H](C)O)C(C)C)CC(C)C,IC50,[1],55 nM
same,IC50,[2],1390 nM
same,IC50,[3],0.36 nM
CC(=O)N[C@@H](C)C(=O)N[C@@H](CO)C(=O)N[C@@H](CC(C)C)C(=O)N[C@@H](CCCN=C(N)N)C(=O)N[C@@H](Cc1c[nH]cn1)C(=O)N[C@@H](Cc1ccc(O)cc1)C(=O)N[C@@H](CC(C)C)C(=O)N[C@@H](CC(N)=O)C(=O)N[C@H](CN[C@H](C(=O)N[C@H](C(=O)N[C@@H](CCCN=C(N)N)C(=O)N[C@@H](CCC(N)=O)C(=O)N[C@@H](CCCN=C(N)N)C(=O)N[C@@H](Cc1ccc(O)cc1)C(N)=O)[C@@H](C)O)C(C)C)CC(C)C,IC50,[1],> 3000 nM
same,IC50,[2],769 nM
same,IC50,[3],> 100 nM
CC(=O)N[C@@H](C)C(=O)N[C@@H](CO)C(=O)N[C@@H](CC(C)C)C(=O)N[C@@H](CCCNC(=N)N)C(=O)N[C@@H](Cc1cnc[nH]1)C(=O)N[C@@H](Cc1c[nH]c2ccccc12)C(=O)N[C@@H](CC(C)C)C(=O)N[C@@H](CC(N)=O)C(=O)N[C@@H](CC(C)C)C(=O)N[C@H](C(=O)N[C@H](C(=O)N[C@@H](CCCNC(=N)N)C(=O)N[C@@H](CCC(N)=O)C(=O)N[C@@H](CCCNC(=N)N)CN[C@@H](Cc1ccc(O)cc1)C(N)=O)[C@@H](C)O)C(C)C (Ac-ASLRHWLNLVTRQ-{Argψ(CH2NH)TyrNH2}),IC50,[1],1.05 nM
same,IC50,[2],> 1000 nM
same,IC50,[3],1.12 nM
CC(=O)N[C@@H](C)C(=O)N[C@@H](CO)C(=O)N[C@@H](CC(C)C)C(=O)N[C@@H](CCCN=C(N)N)C(=O)N[C@@H](Cc1c[nH]cn1)C(=O)N[C@@H](Cc1ccc(O)cc1)C(=O)N[C@@H](CC(C)C)C(=O)N[C@@H](CC(N)=O)C(=O)N[C@@H](CC(C)C)C(=O)N[C@H](C(=O)N[C@H](CN[C@@H](CCCN=C(N)N)C(=O)N[C@@H](CCC(N)=O)C(=O)N[C@@H](CCCN=C(N)N)C(=O)N[C@@H](Cc1ccc(O)cc1)C(N)=O)[C@@H](C)O)C(C)C (Ac-ASLRHYLNLV-X1),IC50,[1],52 nM
same,IC50,[2],1090 nM
same,IC50,[3],5.03 nM
CC(=O)N[C@@H](C)C(=O)N[C@@H](CO)C(=O)N[C@@H](CC(C)C)C(=O)N[C@@H](CCCNC(=N)N)C(=O)N[C@@H](Cc1cnc[nH]1)C(=O)N[C@@H](Cc1ccc(O)cc1)C(=O)N[C@@H](CC(C)C)C(=O)N[C@@H](CC(N)=O)C(=O)N[C@@H](CC(C)C)C(=O)N[C@H](C(=O)N[C@H](C(=O)N[C@@H](CCCNC(=N)N)CN[C@@H](CCC(N)=O)C(=O)N[C@@H](CCCNC(=N)N)C(=O)N[C@@H](Cc1ccc(O)cc1)C(N)=O)[C@@H](C)O)C(C)C (Ac-ASLRHYLNLVT-X2),IC50,[1],> 10000 nM
same,IC50,[2],1250 nM
same,IC50,[3],> 100 nM
CC(=O)N[C@@H](C)C(=O)N[C@@H](CO)C(=O)N[C@@H](CC(C)C)C(=O)N[C@@H](CCCNC(=N)N)C(=O)N[C@@H](Cc1cnc[nH]1)C(=O)N1Cc2ccccc2C[C@H]1C(=O)N[C@@H](CC(C)C)C(=O)N[C@@H](CC(N)=O)C(=O)N[C@@H](CC(C)C)C(=O)N[C@H](C(=O)N[C@H](C(=O)N[C@@H](CCCNC(=N)N)C(=O)N[C@@H](CCC(N)=O)C(=O)N[C@@H](CCCNC(=N)N)C(=O)N[C@@H](Cc1ccc(O)cc1)C(N)=O)[C@@H](C)O)C(C)C (Ac-ASLRH[Tic]LNLVTRQRY-NH2),IC50,[1],186 nM
same,IC50,[3],3.4 nM
Ac-FSLRHFLNLVTRQRY-NH2,IC50,[1],5.61 nM
same,IC50,[2],275 nM
